Source: ChEMBL document CHEMBL4118125, “MK-8325: A silyl proline-containing NS5A inhibitor with pan-genotype activity for treatment of HCV” (Bioorg Med Chem Lett, 2018)
The source made the active and inactive calls. The calls are words filed in the database; no cut-off is given here.

Experiments:
Homo sapiens [1] = species on record: Homo sapiens; assay: Inhibition of sodium channel (unknown origin) at 30 uM
Homo sapiens [2] = species on record: Homo sapiens; assay: Inhibition of IKs channel (unknown origin) at 30 uM
Canis familiaris = assay: AUC in beagle dog at 1 mg/kg, po by LC-MS/MS method; type: ADME, organism-based, Canis lupus familiaris; conditions: in vivo
[3] = Effective half life in Sprague-Dawley rat at 2.5 mg/kg, iv by LC-MS/MS method; type: ADME, organism-based; conditions: in vivo, read-out: t1/2eff (converted)
[4] = Drug level in Sprague-Dawley rat at 2 mg/kg, po after 24 hrs by LC-MS/MS method; type: ADME, organism-based; conditions: in vivo, read-out: Drug uptake
[5] = Clearance in cynomolgus monkey at 1 mg/kg, iv by LC-MS/MS method; type: ADME, organism-based, Macaca fascicularis; conditions: in vivo
[6] = Clearance in beagle dog at 1 mg/kg, iv by LC-MS/MS method; type: ADME, organism-based, Canis lupus familiaris; conditions: in vivo
[7] = Clearance in Sprague-Dawley rat at 2.5 mg/kg, iv by LC-MS/MS method; type: ADME, organism-based; conditions: in vivo
[8] = biological target: T1, Nuclear receptor subfamily 1 group I member 2 (Homo sapiens, UniProt O75469); assay: Activation of PXR (unknown origin); type: ADME
T1 sequence (O75469 whole entry): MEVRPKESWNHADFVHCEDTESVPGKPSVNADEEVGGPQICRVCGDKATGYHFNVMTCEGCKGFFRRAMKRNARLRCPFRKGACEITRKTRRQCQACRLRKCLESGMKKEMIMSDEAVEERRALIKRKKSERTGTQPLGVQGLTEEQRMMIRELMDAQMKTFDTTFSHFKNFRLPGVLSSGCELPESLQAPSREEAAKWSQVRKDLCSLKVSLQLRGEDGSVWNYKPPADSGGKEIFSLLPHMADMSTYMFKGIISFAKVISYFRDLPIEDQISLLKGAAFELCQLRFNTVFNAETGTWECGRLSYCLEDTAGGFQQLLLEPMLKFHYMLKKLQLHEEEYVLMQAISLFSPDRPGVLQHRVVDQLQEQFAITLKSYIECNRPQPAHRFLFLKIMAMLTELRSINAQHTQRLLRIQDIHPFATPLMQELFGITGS

Cytochrome P450 2C9 = Cytochrome P450 2C9 (Homo sapiens, UniProt P11712); assay: Inhibition of CYP2C9 (unknown origin); type: ADME
[9] = Oral bioavailability in beagle dog at 1 mg/kg by LC-MS/MS method; type: ADME, organism-based, Canis lupus familiaris; conditions: in vivo
[10] = Cytotoxicity in human HuH7 replicon cells by MTS assay; type: cell-based, Huh-7
Cytochrome P450 2D6 = Cytochrome P450 2D6 (Homo sapiens, UniProt P10635); assay: Inhibition of CYP2D6 (unknown origin); type: ADME
[11] = Oral bioavailability in Sprague-Dawley rat at 2 mg/kg by LC-MS/MS method; type: ADME, organism-based; conditions: in vivo
Cytochrome P450 3A4 = Cytochrome P450 3A4 (Homo sapiens, UniProt P08684); assay: Inhibition of CYP3A4 (unknown origin); type: ADME
[12] = Effective half life in beagle dog at 1 mg/kg, iv by LC-MS/MS method; type: ADME, organism-based, Canis lupus familiaris; conditions: in vivo, read-out: t1/2eff (converted)
Rattus norvegicus = assay: AUC in Sprague-Dawley rat at 2 mg/kg, po by LC-MS/MS method; type: ADME, organism-based; conditions: in vivo
[13] = Effective half life in cynomolgus monkey at 1 mg/kg, iv by LC-MS/MS method; type: ADME, organism-based, Macaca fascicularis; conditions: in vivo, read-out: t1/2eff (converted)
[14] = Drug level in beagle dog at 1 mg/kg, po after 24 hrs by LC-MS/MS method; type: ADME, organism-based, Canis lupus familiaris; conditions: in vivo, read-out: Drug uptake

Chain of Cytochrome P450 3A4 (P08684 whole entry): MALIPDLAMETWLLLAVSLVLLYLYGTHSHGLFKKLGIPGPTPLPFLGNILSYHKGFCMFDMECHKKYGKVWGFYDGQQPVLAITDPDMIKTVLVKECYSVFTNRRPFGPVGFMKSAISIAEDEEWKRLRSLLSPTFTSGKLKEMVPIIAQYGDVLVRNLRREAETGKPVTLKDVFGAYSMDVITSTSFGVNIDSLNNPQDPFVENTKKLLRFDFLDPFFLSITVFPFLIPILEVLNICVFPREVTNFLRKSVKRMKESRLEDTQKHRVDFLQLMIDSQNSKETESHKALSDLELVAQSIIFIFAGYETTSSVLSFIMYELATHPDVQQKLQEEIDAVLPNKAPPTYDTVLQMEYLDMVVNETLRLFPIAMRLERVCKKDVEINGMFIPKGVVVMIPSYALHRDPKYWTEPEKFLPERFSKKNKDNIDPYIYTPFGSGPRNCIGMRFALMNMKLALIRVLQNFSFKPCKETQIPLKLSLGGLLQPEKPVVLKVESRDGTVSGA
Chain of Cytochrome P450 2D6 (P10635 whole entry): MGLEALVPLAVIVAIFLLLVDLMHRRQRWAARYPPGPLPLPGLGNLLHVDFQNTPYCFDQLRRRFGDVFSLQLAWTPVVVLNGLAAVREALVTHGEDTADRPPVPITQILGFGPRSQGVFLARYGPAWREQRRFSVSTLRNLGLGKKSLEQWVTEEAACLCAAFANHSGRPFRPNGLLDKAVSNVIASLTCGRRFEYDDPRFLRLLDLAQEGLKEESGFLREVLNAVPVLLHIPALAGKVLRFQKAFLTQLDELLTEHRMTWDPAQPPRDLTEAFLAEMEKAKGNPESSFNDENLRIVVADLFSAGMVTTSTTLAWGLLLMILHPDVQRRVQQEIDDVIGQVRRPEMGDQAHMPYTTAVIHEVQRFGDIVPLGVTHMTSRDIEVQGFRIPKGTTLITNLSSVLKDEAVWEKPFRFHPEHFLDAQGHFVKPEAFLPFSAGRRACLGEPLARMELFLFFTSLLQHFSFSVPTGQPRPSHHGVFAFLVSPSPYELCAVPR
Chain of Cytochrome P450 2C9 (P11712 whole entry): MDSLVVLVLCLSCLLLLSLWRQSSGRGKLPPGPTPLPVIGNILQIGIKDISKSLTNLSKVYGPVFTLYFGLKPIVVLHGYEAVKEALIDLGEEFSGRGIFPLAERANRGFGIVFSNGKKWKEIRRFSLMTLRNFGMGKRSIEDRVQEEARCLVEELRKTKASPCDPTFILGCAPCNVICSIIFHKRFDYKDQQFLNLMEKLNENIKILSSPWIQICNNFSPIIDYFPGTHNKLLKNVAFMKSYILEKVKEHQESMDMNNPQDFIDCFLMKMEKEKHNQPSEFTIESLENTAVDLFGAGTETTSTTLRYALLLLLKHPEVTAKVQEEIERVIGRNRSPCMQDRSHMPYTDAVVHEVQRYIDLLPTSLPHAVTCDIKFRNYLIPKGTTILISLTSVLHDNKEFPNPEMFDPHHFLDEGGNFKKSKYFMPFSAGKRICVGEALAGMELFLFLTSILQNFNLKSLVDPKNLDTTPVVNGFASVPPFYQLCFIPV

Compound | inhibition (Homo sapiens [1]) | inhibition (Homo sapiens [2]) | AUC (Canis familiaris) [uM.hr/ml] | half-life [3] [h] | concentration at 24 h [4] [nM] | clearance [5] [mL/min/kg] | clearance [6] [mL/min/kg] | clearance [7] [mL/min/kg] | Activity [8] [µM] | INH (Cytochrome P450 2C9) [µM] | bioavailability [9] [%] | CC50 [10] [µM] | INH (Cytochrome P450 2D6) [µM] | bioavailability [11] [%] | INH (Cytochrome P450 3A4) [µM] | half-life [12] [h] | AUC (Rattus norvegicus) [uM.hr/ml] | half-life [13] [h] | concentration at 24 h [14] [nM]
COC(=O)N[C@H](C(=O)N1CC(F)(F)C[C@H]1c1ncc(-c2ccc(-c3ccc4c(ccc5nc([C@@H]6C[Si](C)(C)CN6C(=O)[C@@H](NC(=O)OC)C(C)C)[nH]c54)c3)cc2)[nH]1)C(C)C | inactive |  |  |  |  |  |  |  |  |  |  |  |  |  |  |  |  |  | 
COC(=O)N[C@H](C(=O)N1CCC[C@H]1c1ncc(-c2ccc(-c3cc4cc(-c5cnc([C@@H]6CCCN6C(=O)[C@@H](NC(=O)OC)C(C)C)[nH]5)ccc4o3)cc2)[nH]1)C(C)C |  | inactive | 1.1 | 2 | 4 | 9.1 | 6.4 | 9.3 | 3 | > 20 | 26 | 7 | > 20 | 38 | > 20 | 4.7 | 1.7 | 3 | 4
